What is called IC50 is the midpoint of a concentration-inhibition curve. Higher therefore signals a need for much substance. The term solubility denotes the concentration that dissolves in the medium under given conditions. A higher solubility goes with a readily soluble substance.

One data set deals with blood platelet. Briefly: Human in vitro blood platelet aggregation inhibition test (ADP-induced, PRP). It is filed as cell-based. Conditions: 0.05 h. The protocol: Citrated blood (the volume ratio of 3.13 % sodium citrate solution and blood is 1:9) was collected from the cubital vein of a healthy human who had not received any drugs known to affect the function of blood platelet within 2 weeks prior to starting the test, and centrifuged at 120 x g at room temperature for 15 minutes. The resulting supernatant was separated to give platelet rich plasma (PRP), the remaining precipitate was further centrifuged at 1500 x g for 10 minutes, and the resulting supernatant was separated to give platelet poor plasma (PPP).
The blood platelet counts of PRP were adjusted to 50 ∼ 60 × 10^4/µl by diluting with PPP.
Blood platelet aggregation was determined according to the method of Born G.V.R., [Nature, vol. 194, page 927 (1962)] using adenosine diphosphate (produced by Sigma Co.; hereinafter referred to as "ADP") as an aggregation-inducing substance. That is, a solution of the compound of Formula (I) as a test drug in dimethyl sulfoxide was adjusted to the desired concentration with a physiological saline solution. 25 µl of the solution was added to 250 µl of PRP and incubated at 37°C for 3 minutes, and 25 µl of ADP (final concentration : 7 µM) was added thereto. […]

Data set [1] in a line: Solubility test in Britton-Robinson buffered solution, HPLC. In kind it is physicochemical. Conditions: britton-robinson buffer, aqueous buffer; Britton - Robinson broad buffered solution pH 4, ionic strength 0.125, 25°C. The protocol: (§1) Solubility and stability tests were carried out according to the method of R.H. Blythe et al [J. Pharm. Sci., vol. 66, page 785 (1977)].
A Britton - Robinson broad buffered solution (pH 4) was prepared, and adjusted to 0.125 of the ionic strength by adding sodium chloride. An excess amount of Compound 3 was added to the resulting solution and dissolved with heating, and then after stirring at 25°C for a desired time, the solubility which became constant was measured by HPLC under the following conditions. • Column : TSK-Gel, ODS-80TM, 4φ × 150 mm • Column temperature : 50°C • Mobile phase : Water : CH3CN : SDS : phosphoric acid = 500:500:3:1 • Detection wave length : 246 nm • Flow rate : 1.0 ml/min. • Injection amount : 10 µl

The nature of data set [2]: Stability test in phosphate buffer, decomposition rate constants extrapolated to 25°C. Conditions: phosphate buffer adjusted to pH 4.0, 20 µg/ml; estimated from rate constants of decomposition at 100°C and 65°C. In kind it is physicochemical. The protocol:
as §1
A phosphate buffer (pH 7) (0.1M disodium hydrogenphosphate + 0.1M sodium dihydrogenphosphate) was prepared, and adjusted to pH 4.0 with phosphoric acid. Compound 3 was added to the buffered solution at the concentration of 20 µg/ml, and which was used as a test solution. The content of Compound 3 in the test solution stored at 100°C and 65°C respectively was determined, and the rate constant of decomposition at each temperature was calculated. As a result, it was estimated that the term for remaining a 95% content of Compound 3 at 25°C was 17.6 years.

SMILES strings stand for the structures. In brackets after ≈: the same amount, converted by molar mass.

In the data set with blood platelet, `Cc1c(C(=O)NCCC(=O)O)sc(=NC(=O)c2ccc(C(=N)N3CCN(c4ccccn4)CC3)cc2)n1C` [Compound 3, N-(2-Carboxyethyl)-2-{4-[4-(pyridin-2-yl)piperadinylimidoyl]benzoylimino}-3,4-dimethyl-3H-thiazoline-5-carboxamide] showed an IC50 of 21.5 nM. The same compound returned a solubility in data set [1] of 4300 µg/mL (≈ 8.03 mM). Besides, the “term for remaining a 95% content at 25°C” value in data set [2] is recorded as 17.6 years.

Values taken from patent publication EP0739894A1, “THIAZOLINE DERIVATIVE” (TAISHO PHARMACEUTICAL CO. LTD, priority 1994, dated 1995).
